Reference: patent US4504655A, “Substances potentiating the activity of antibiotics and their production” (Takeda Chemical Industries, Ltd., priority 1981, dated 1985)

Columns and labels:
Assay type in all cases: cell-based
[1] = test system: Proteus mirabilis ATCC 21100; assay: Antibiotic-potentiating activity, paper disc growth inhibition zone, Proteus mirabilis ATCC 21100
Protocol: (§1) *The test was performed using a bouillon agar medium containing the
antibiotic as specified and a paper disc, 8 mm in diameter. […]
*The test was performed under the same conditions as noted for Table 1
except for the test organism and the concentration of each coexisting

Escherichia coli = assay: Observation of the culture broths under a phase contrast microscope; conditions: in the presence of cephalexin or cefmenoxime
Protocol: (§2) To 8 ml of YAB medium (1.75% Difco antibiotic medium No. 3, 0.5% Difco yeast extract) containing 12% (w/v) of sucrose, there were added 1 ml of water, 50 μg/ml cephalexin solution or 10 μg/ml cefmenoxime solution, and the medium was inoculated with 1 ml of a preculture in YAB medium at an early logarithmic growth phase and incubated with shaking at 37° C. for 2 hours. Thereafter, the absorbance of the culture broth was measured at 600 nm using a Shimadzu-Bausch & Lomb Spectronic 20 colorimeter.

[2] = test system: Escherichia coli IFO 12734; assay: Inhibition of growth of Escherichia coli in liquid culture (absorbance at 600 nm); conditions: for Absorbance at 600 nm: 37° C., 2 hours
Protocol: Table 5: Inhibition of growth of Escherichia coli IFO 12734 in the copresence of F2 (obtained in Example 1) and cephalexin or cefmenoxime.
as §2

[3] = test system: Escherichia coli IFO 12734; assay: as above; conditions: 37° C., 2 hours
[4] = test system: Escherichia coli IFO 12734; assay: Antibiotic-potentiating activity, paper disc growth inhibition zone, Escherichia coli IFO 12734
Protocol: The potency of the compound of the formula (II) can be determined, for instance, by the cup method or paper disc method using bouillon agar containing 0.05 μg/ml of cefmenoxime with Escherichia coli IFO 12734 as the test organism. […]
as §1
antibiotic as specified and a paper disc, 8 mm in diameter.
**A paper disc, 8 mm in diameter, was impregnated with 25 μl of the […]

[5] = F2 of Example 1, 1 μg/ml in test solution, no addition
[6] = F2 of Example 1, 5 μg/ml in test solution, no addition
[7] = F2 of Example 1, 25 μg/ml in test solution, no addition
[8] = F2 of Example 1, 125 μg/ml in test solution, no addition
[9] = F2 of Example 1, 1000 μg/ml in test solution, no addition
[10] = F2 of Example 3, 1 μg/ml in test solution, no addition
[11] = F2 of Example 3, 5 μg/ml in test solution, no addition
[12] = F2 of Example 3, 25 μg/ml in test solution, no addition
[13] = F2 of Example 3, 125 μg/ml in test solution, no addition
[14] = F2 of Example 3, 1000 μg/ml in test solution, no addition

Q: Which results are given for `CC(=O)NC1C(OC2CC(C(=O)NCCS(=O)(=O)O)NC2CO)OC(CO)C(OS(=O)(=O)O)C1O` (stereo not drawn) [F2]?
A: Diameter of growth inhibition zone ([1]; F2 of Example 1, 1 μg/ml in test solution, 0.01 μg/ml cefmenoxime): 9 mm; Diameter of growth inhibition zone ([1]; F2 of Example 1, 1 μg/ml in test solution, 0.05 μg/ml mecillinam): 9 mm; Diameter of growth inhibition zone [1, 5]: < 8 mm; Diameter of growth inhibition zone ([1]; F2 of Example 1, 5 μg/ml in test solution, 0.01 μg/ml cefmenoxime): 13 mm; Diameter of growth inhibition zone ([1]; F2 of Example 1, 5 μg/ml in test solution, 0.05 μg/ml mecillinam): 11 mm; Diameter of growth inhibition zone [1, 6]: < 8 mm; Diameter of growth inhibition zone ([1]; F2 of Example 1, 25 μg/ml in test solution, 0.01 μg/ml cefmenoxime): 23 mm; Diameter of growth inhibition zone ([1]; F2 of Example 1, 25 μg/ml in test solution, 0.05 μg/ml mecillinam): 19 mm; Diameter of growth inhibition zone [1, 7]: < 8 mm; Diameter of growth inhibition zone ([1]; F2 of Example 1, 125 μg/ml in test solution, 0.01 μg/ml cefmenoxime): 30 mm; Diameter of growth inhibition zone ([1]; F2 of Example 1, 125 μg/ml in test solution, 0.05 μg/ml mecillinam): 26 mm; Diameter of growth inhibition zone [1, 8]: < 8 mm; Diameter of growth inhibition zone ([1]; F2 of Example 1, 1000 μg/ml in test solution, 0.01 μg/ml cefmenoxime): 38 mm; Diameter of growth inhibition zone ([1]; F2 of Example 1, 1000 μg/ml in test solution, 0.05 μg/ml mecillinam): 32 mm; Diameter of growth inhibition zone [1, 9]: < 8 mm; Diameter of growth inhibition zone ([1]; F2 of Example 3, 1 μg/ml in test solution, 0.01 μg/ml cefmenoxime): 9 mm; Diameter of growth inhibition zone ([1]; F2 of Example 3, 1 μg/ml in test solution, 0.05 μg/ml mecillinam): 9 mm; Diameter of growth inhibition zone [1, 10]: < 8 mm; Diameter of growth inhibition zone ([1]; F2 of Example 3, 5 μg/ml in test solution, 0.01 μg/ml cefmenoxime): 12 mm; Diameter of growth inhibition zone ([1]; F2 of Example 3, 5 μg/ml in test solution, 0.05 μg/ml mecillinam): 12 mm; Diameter of growth inhibition zone [1, 11]: < 8 mm; Diameter of growth inhibition zone ([1]; F2 of Example 3, 25 μg/ml in test solution, 0.01 μg/ml cefmenoxime): 22 mm; Diameter of growth inhibition zone ([1]; F2 of Example 3, 25 μg/ml in test solution, 0.05 μg/ml mecillinam): 19 mm; Diameter of growth inhibition zone [1, 12]: < 8 mm; Diameter of growth inhibition zone ([1]; F2 of Example 3, 125 μg/ml in test solution, 0.01 μg/ml cefmenoxime): 29 mm; Diameter of growth inhibition zone ([1]; F2 of Example 3, 125 μg/ml in test solution, 0.05 μg/ml mecillinam): 25 mm; Diameter of growth inhibition zone [1, 13]: < 8 mm; Diameter of growth inhibition zone ([1]; F2 of Example 3, 1000 μg/ml in test solution, 0.01 μg/ml cefmenoxime): 38 mm; Diameter of growth inhibition zone ([1]; F2 of Example 3, 1000 μg/ml in test solution, 0.05 μg/ml mecillinam): 32 mm; Diameter of growth inhibition zone [1, 14]: < 8 mm; Swelling and bacteriolysis under phase contrast microscope (Escherichia coli): partial swelling occurred and bacteriolysis proceeded; Elongation of cells under phase contrast microscope (Escherichia coli; in dependence on the addition level): elongation was inhibited; Absorbance at 600 nm ([2]; final F2 (Example 1) 1 μg/ml, 1 μg/ml cefmenoxime): 0.60; Absorbance at 600 nm ([2]; final F2 (Example 1) 1 μg/ml, 5 μg/ml cephalexin): 1.80; Absorbance at 600 nm ([2]; final F2 (Example 1) 1 μg/ml, no addition): 2.65; Absorbance at 600 nm ([2]; final F2 (Example 1) 10 μg/ml, no addition): 2.65; Inhibition of growth of Escherichia coli ([2]; in the presence of cephalexin or cefmenoxime, decrease in absorbance): inhibits the growth of Escherichia coli; Absorbance at 600 nm ([3]; final F2 (Example 1) 10 μg/ml, 1 μg/ml cefmenoxime): 0.25; Absorbance at 600 nm ([3]; final F2 (Example 1) 10 μg/ml, 5 μg/ml cephalexin): 1.00; Absorbance at 600 nm ([3]; final F2 (Example 1) 100 μg/ml, 1 μg/ml cefmenoxime): 0.30; Absorbance at 600 nm ([3]; final F2 (Example 1) 100 μg/ml, 5 μg/ml cephalexin): 0.95; Absorbance at 600 nm ([3]; final F2 (Example 1) 100 μg/ml, no addition): 2.70; Absorbance at 600 nm ([3]; final F2 (Example 3) 1 μg/ml, 1 μg/ml cefmenoxime): 0.55; Absorbance at 600 nm ([3]; final F2 (Example 3) 1 μg/ml, 5 μg/ml cephalexin): 1.75; Absorbance at 600 nm ([3]; final F2 (Example 3) 1 μg/ml, no addition): 2.45; Absorbance at 600 nm ([3]; final F2 (Example 3) 10 μg/ml, 1 μg/ml cefmenoxime): 0.25; Absorbance at 600 nm ([3]; final F2 (Example 3) 10 μg/ml, 5 μg/ml cephalexin): 1.90; Absorbance at 600 nm ([3]; final F2 (Example 3) 10 μg/ml, no addition): 2.50; Absorbance at 600 nm ([3]; final F2 (Example 3) 100 μg/ml, 1 μg/ml cefmenoxime): 0.25; Absorbance at 600 nm ([3]; final F2 (Example 3) 100 μg/ml, 5 μg/ml cephalexin): 0.75; Absorbance at 600 nm ([3]; final F2 (Example 3) 100 μg/ml, no addition): 2.55; Diameter of growth inhibition zone ([4]; F2 of Example 1, 1 μg/ml in test solution, 0.03 μg/ml mecillinam): < 8 mm; Diameter of growth inhibition zone ([4]; F2 of Example 1, 1 μg/ml in test solution, 0.05 μg/ml cefmenoxime): 10 mm; Diameter of growth inhibition zone [4, 5]: < 8 mm; Diameter of growth inhibition zone ([4]; F2 of Example 1, 5 μg/ml in test solution, 0.03 μg/ml mecillinam): 10 mm; Diameter of growth inhibition zone ([4]; F2 of Example 1, 5 μg/ml in test solution, 0.05 μg/ml cefmenoxime): 15 mm; Diameter of growth inhibition zone [4, 6]: < 8 mm; Diameter of growth inhibition zone ([4]; F2 of Example 1, 25 μg/ml in test solution, 0.03 μg/ml mecillinam): 18 mm; Diameter of growth inhibition zone ([4]; F2 of Example 1, 25 μg/ml in test solution, 0.05 μg/ml cefmenoxime): 24 mm; Diameter of growth inhibition zone [4, 7]: < 8 mm; Diameter of growth inhibition zone ([4]; F2 of Example 1, 125 μg/ml in test solution, 0.03 μg/ml mecillinam): 24 mm; Diameter of growth inhibition zone ([4]; F2 of Example 1, 125 μg/ml in test solution, 0.05 μg/ml cefmenoxime): 32 mm; Diameter of growth inhibition zone [4, 8]: < 8 mm; Diameter of growth inhibition zone ([4]; F2 of Example 1, 1000 μg/ml in test solution, 0.03 μg/ml mecillinam): 30 mm; Diameter of growth inhibition zone ([4]; F2 of Example 1, 1000 μg/ml in test solution, 0.05 μg/ml cefmenoxime): 40 mm; Diameter of growth inhibition zone [4, 9]: < 8 mm; Diameter of growth inhibition zone ([4]; F2 of Example 3, 1 μg/ml in test solution, 0.03 μg/ml mecillinam): < 8 mm; Diameter of growth inhibition zone ([4]; F2 of Example 3, 1 μg/ml in test solution, 0.05 μg/ml cefmenoxime): 9 mm; Diameter of growth inhibition zone [4, 10]: < 8 mm; Diameter of growth inhibition zone ([4]; F2 of Example 3, 5 μg/ml in test solution, 0.03 μg/ml mecillinam): 9 mm; Diameter of growth inhibition zone ([4]; F2 of Example 3, 5 μg/ml in test solution, 0.05 μg/ml cefmenoxime): 14 mm; Diameter of growth inhibition zone [4, 11]: < 8 mm; Diameter of growth inhibition zone ([4]; F2 of Example 3, 25 μg/ml in test solution, 0.03 μg/ml mecillinam): 19 mm; Diameter of growth inhibition zone ([4]; F2 of Example 3, 25 μg/ml in test solution, 0.05 μg/ml cefmenoxime): 23 mm; Diameter of growth inhibition zone [4, 12]: < 8 mm; Diameter of growth inhibition zone ([4]; F2 of Example 3, 125 μg/ml in test solution, 0.03 μg/ml mecillinam): 23 mm; Diameter of growth inhibition zone ([4]; F2 of Example 3, 125 μg/ml in test solution, 0.05 μg/ml cefmenoxime): 31 mm; Diameter of growth inhibition zone [4, 13]: < 8 mm; Diameter of growth inhibition zone ([4]; F2 of Example 3, 1000 μg/ml in test solution, 0.03 μg/ml mecillinam): 29 mm; Diameter of growth inhibition zone ([4]; F2 of Example 3, 1000 μg/ml in test solution, 0.05 μg/ml cefmenoxime): 39 mm; Diameter of growth inhibition zone [4, 14]: < 8 mm
